In patent publication US20080262228A1, “Metabolites of 5-fluoro-8- quinoline and methods of preparation and uses thereof” (Wyeth, priority 2006, published 2008):
Where a name gives a salt, the structure may show the parent alone.

Legend:
[1] = Metabolite profiling in liver microsomes and S9; assay type: in vitro ADME, rat, dog, monkey, human; conditions: liver microsomes and S9, 10 μM COMPOUND I, 30 min; species letters not defined
Procedure: Microsomal incubations for metabolite profiling were similar to those described above for intrinsic clearance determination (see Table 1). Aliquots of COMPOUND I (10 μL), dissolved in DMSO:methanol (1:9), were added to a 96-well plate containing phosphate buffer, and MgCl2 and the liver microsomes at 37° C. using the same automation apparatus as for the stability study described hereinabove. The reactions were initiated by the addition of the UDPGA and NADPH generating system. The final incubation volume for all samples was 1 mL and the length of incubation was 30 min. […] Three 250 μL aliquots were transferred to a 96-well plate containing 900 μL acetonitrile to precipitate the protein. […] The samples were then reconstituted in 150 μL of 20% methanol in water. The three aliquots for each sample were pooled and analyzed by LC/MS.
S9 incubation buffer and cofactors were chosen to allow N-acetylation and carbamoyl glucuronidation in addition to oxidative and glucuronidation pathways possible in liver microsomes. Incubations of sulfamethazine and SCA-136 with liver S9 were used as positive controls for N-acetylation and carbamoyl glucuronidation, respectively. Following a 30 min. incubation, 750 μL from each sample were added to 900 μL acetonitrile. Following centrifugation and evaporation of the supernatant, the samples were reconstituted in 450 μL of 20% methanol in water for analysis by HPLC/UV and LC/MS (see below).
The HPLC system used for mass spectrometric analysis was an Agilent 1100 HPLC (Agilent Technologies, Palo Alto, Calif.) equipped with a binary pump and a diode array UV detector. The UV detector was set to monitor 190-400 nm. Separations were accomplished on a Luna C18 column (150×2.1 mm, 5 μm) (Phenomenex Incorporated, Torrance, Calif.).
The mass spectrometer used for metabolite characterization was a Finnigan LCQ Deca ion trap mass spectrometer (Thermo Electron Corp.). […] Full scan and data dependent MS2 and MS3 mass spectra were recorded. Finnigan Xcalibur software (version 1.3) was used for control of equipment and recording of data from UV and LC/MS analyses.
Chromatographic profiles of COMPOUND I (10 μM) metabolites in incubations with liver microsomes in the presence of NADPH are presented in FIG. 1. Chromatographic profiles of COMPOUND I (10 μM) metabolites in incubations with liver microsomes in the presence of NADPH and UDPGA are presented in FIG. 2. Chromatographic profiles of COMPOUND I (10 μM) metabolites in incubations with liver S9 in the presence of NADPH, UDPGA and acetyl coenzyme A (CoA) are presented in FIG. 3. In incubations containing NADPH, UDPGA and acetyl CoA, fourteen Phase I metabolites (M1, M6, M8, M12, M13, M14, M15, M16, M17, M18, M20, M21, M22 and M23) and six Phase II metabolites (M2, M3, M5, M7, M9 and M10) were observed. In incubations without cofactors, no metabolites were observed.
LC/MS analysis was conducted on extracts of mouse, rat, monkey and human liver microsomes and S9. The mass spectral data for the characterized COMPOUND I metabolites are discussed below.

[2] = biological target: T1, human 5-HT1A receptor (Homo sapiens, UniProt P08908); test: [3H]-8-OH-DPAT displacement radioligand binding; conditions: h5-HT1A.CHO cell membranes, read-out: Ki value for 5-HT1A affinity
T1 construct: expressed in transfected cells
T1 sequence (P08908 1-422): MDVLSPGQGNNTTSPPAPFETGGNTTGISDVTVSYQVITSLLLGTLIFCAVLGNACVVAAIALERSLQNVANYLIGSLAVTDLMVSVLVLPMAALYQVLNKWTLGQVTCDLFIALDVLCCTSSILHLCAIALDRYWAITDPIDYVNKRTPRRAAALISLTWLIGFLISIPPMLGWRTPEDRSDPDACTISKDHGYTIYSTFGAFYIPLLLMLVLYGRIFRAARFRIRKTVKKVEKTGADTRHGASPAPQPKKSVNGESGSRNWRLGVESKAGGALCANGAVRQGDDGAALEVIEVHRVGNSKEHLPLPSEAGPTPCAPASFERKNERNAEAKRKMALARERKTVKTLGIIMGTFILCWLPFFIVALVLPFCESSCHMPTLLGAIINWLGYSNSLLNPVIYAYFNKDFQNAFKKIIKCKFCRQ
Procedure: A Ki value is reported. The in vitro functional activity of the compounds of this invention is determined by measuring the effect of the compound on forskolin-induced adenylate cyclase activity in the same cell line. 5-HT1A agonists, such as the full agonist 8-OH-DPAT, inhibit forskolin-induced adenylate cyclase activity, as measured by a reduction in cAMP levels. The compounds of this invention display agonist activity as shown by its ability to induce a decrease in cAMP levels. An EC50 value is reported and the maximum response of the test compound is reported as the percent of a full agonist response (the maximum response obtained with the full agonist 8-OH-DPAT=100%). This percent is expressed as an Emax value.
The PCR cloning of the human 5-HT1A receptor subtype from a human genomic library has been described previously (Chanda et al., Mol. Pharmacol., 43:516 (1993)). A stable Chinese hamster ovary cell line expressing the human 5-HT1A receptor subtype (h5-HT1A.CHO cells) was employed throughout this study. Cells were maintained in DMEM supplemented with 10% fetal calf serum, non-essential amino acids and penicillin/streptomycin.
Radioligand binding assays can be performed as described in Dunlop, J. et al., J. Pharmacol. and Toxicol. Methods 40: 47-55 (1998). […] Non-specific binding is determined in the presence of 10 μM 5HT. […]

Species (in which the metabolite was characterized) [1] | Ki [2] [nM] | Compound
R, D, M, H | – | COc1cc(N2CCN(C3CCN(c4ccc(F)c5cccnc45)CC3)CC2)c2ncccc2c1 [COMPOUND I, 5-Fluoro-8-{4-[4-(6-methoxyquinolin-8-yl)piperazin-1-yl]piperidin-1-yl}quinoline]
R, D, M, H | 0.47 | Oc1cc(N2CCN(C3CCN(c4ccc(F)c5cccnc45)CC3)CC2)c2ncccc2c1 [Metabolite M21, 8-{4-[1-(5-fluoroquinolin-8-yl)piperidin-4-yl]piperazin-1-yl}quinolin-6-ol trihydrochloride]
